# Experimental data reported in patent publication US20200247855A1, “THERAPY AND DIAGNOSTICS” (OXFORD UNIVERSITY INNOVATION LIMITED, priority 2017, published 2020).
# Residues, ends and D or L forms follow the SMILES beside them. *: point of attachment. FITC = O=C1OC2(c3ccc(O)cc3Oc3cc(O)ccc32)c2ccc(NC(=S)*)cc21
# Target: T1, CCL8 (Homo sapiens, UniProt P80075)
# T1 construct: SUMO (in-house protein only) (cleaved yes); made in house; host or cells: Escherichia coli RosettaGami 2 (DE3)
# T1 sequence (P80075 24-99): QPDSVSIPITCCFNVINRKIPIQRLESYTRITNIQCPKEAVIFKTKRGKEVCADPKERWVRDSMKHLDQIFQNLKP
# Test: Fluorescence polarisation (anisotropy) assay
# Assay type: binding
# Details: BK1.1FITC Ala mutants, CCL8
# From the text: FIG. 14. Characterisation of P672_PEP-FITC by fluorescence polarisation. […] Residue C30 was mutated to A to avoid an unpaired cysteine residue. The residues corresponding to the above peptide are wholly contained within the CCL8-binding region of P672_RHIPU transferred in the hybrid evasin P672:EVA1 (SEQ ID 76, see FIG. 5). […] (SEQ ID NO: 90). FIG. 14(A). […] The curve was fitted to the two site-total and non-specific binding model in GraphPad Prism 6. Data are shown as mean and SEM of three independent experiments, with each independent experiment performed as three technical replicates. The affinity constant Kd was calculated in GraphPad Prism from the curve fit with the standard error reported.
# FIG. 14(B). […] The measured fluorescence anisotropy (y-axis) of P672_PEP-FITC (50 nM) following binding to a fixed dose (1 μM)) of CCL7, CCL8, CCL18 and CXCL1 (negative control). […] Statistical significance was determined using one-way ANOVA with Sidak's correction for multiple comparisons using Graph Pad Prism 6. **=p<0.005, ****=P<0.00005, ns=not significant.
# FIG. 15(C). […] In each case 100 μM (++) or […] (+) of P672_PEP was incubated with P672_PEP-FITC (50 nM)/chemokine (1 μM CCL7 and CCL18; 500 nM CCL8) and the resulting anisotropy measured. […] Experiment carried out in triplicate where each data point is the average of one experiment carried out in technical triplicate. Mean with SEM shown and statistical significance was determined using one-way ANOVA with Sidak's correction for multiple comparisons using Graph Pad Prism 6. *=p<0.05, ***=p<0.0005, ****=P<0.00005, ns=not significant.
# Fluorescence polarization assays were performed using a Clariostar (BMG Tech) plate reader with the supplied FITC excitation and emission filters using 96 half area well plates (Corning). The buffer used (FP assay buffer) was 50 mM HEPES, 150 mM NaCl, 0.1% BSA, 0.002% TWEEN-20, 0.2% DMSO, pH 7.4 and the final volume in each well was 30 μL. Polarization was converted to anisotropy using the equation A=(2*P)/(3−P) where P is polarization and A is anisotropy. For each peptide tested the gain was set to 35 mP and adjusted to a well containing fluorescent peptide only. The polarization of the emitted light in the FITC emission channel was then determined. Experiments were performed as two technical and three biological replicates. Screening of P672 peptide fragments was achieved through incubation of each peptide (50 nM) with 1 μM CCL8 (Peprotech) for 30 minutes in FP assay buffer and the resulting anisotropy of the emitted light determined as above. The chemokine cross binding screen was performed by incubating 1 μM chemokine (Peprotech) with 50 nM BK1.1FITC for half an hour in FP assay buffer and the resulting anisotropy of the emitted light determined as above. […] The anisotropy was plotted as a function of CCL8 concentration and fitted to the equation: Y=Bmax*X/(KD+X)+NS*X+Background, where Y is the measured anisotropy, X is the concentration of CCL8 added, Bmax is the maximum binding, KD is the equilibrium dissociation constant, NS is the slope of the nonlinear regression and Background is the anisotropy when no CCL8 is present, in Graph Pad Prism. Displacement assays were carried out with CCL7, CCL8, and CCL18 (Peprotech, 1 μM). […] For all FP assays, the experiments were carried out as two technical and three biological replicates.
row,Compound,Fold change (Kd versus WT)
1,CC(C)[C@H](NC(=O)[C@@H]1CCCN1C(=O)[C@H](CCCCN)NC(=O)[C@H](Cc1ccccc1)NC(=O)[C@H](Cc1ccccc1)NC(=O)[C@H](CC(=O)O)NC(=O)[C@H](CCC(=O)O)NC(=O)[C@H](Cc1ccc(O)cc1)NC(=O)[C@H](CC(=O)O)NC(=O)[C@H](CCC(=O)O)NC(=O)[C@H](C)NC(=O)[C@H](CCC(=O)O)NC(=S)Nc1ccc2c(c1)C(=O)OC21c2ccc(O)cc2Oc2cc(O)ccc21)C(=O)N[C@H](C(=O)N[C@@H](C)C(=O)N[C@@H](Cc1ccc(O)cc1)C(=O)N[C@@H](Cc1ccccc1)C(N)=O)[C@@H](C)O [D18A] ({FITC}-EAEDYEDFFKPVTAYF-NH2),2.5
2,CC(C)[C@H](NC(=O)[C@@H]1CCCN1C(=O)[C@H](CCCCN)NC(=O)[C@H](Cc1ccccc1)NC(=O)[C@H](Cc1ccccc1)NC(=O)[C@H](CC(=O)O)NC(=O)[C@H](CCC(=O)O)NC(=O)[C@H](Cc1ccc(O)cc1)NC(=O)[C@H](C)NC(=O)[C@H](CCC(=O)O)NC(=O)[C@H](CC(=O)O)NC(=O)[C@H](CCC(=O)O)NC(=S)Nc1ccc2c(c1)C(=O)OC21c2ccc(O)cc2Oc2cc(O)ccc21)C(=O)N[C@H](C(=O)N[C@@H](C)C(=O)N[C@@H](Cc1ccc(O)cc1)C(=O)N[C@@H](Cc1ccccc1)C(N)=O)[C@@H](C)O [D20A] ({FITC}-EDEAYEDFFKPVTAYF-NH2),1.5
3,CC(C)[C@H](NC(=O)[C@@H]1CCCN1C(=O)[C@H](CCCCN)NC(=O)[C@H](Cc1ccccc1)NC(=O)[C@H](Cc1ccccc1)NC(=O)[C@H](C)NC(=O)[C@H](CCC(=O)O)NC(=O)[C@H](Cc1ccc(O)cc1)NC(=O)[C@H](CC(=O)O)NC(=O)[C@H](CCC(=O)O)NC(=O)[C@H](CC(=O)O)NC(=O)[C@H](CCC(=O)O)NC(=S)Nc1ccc2c(c1)C(=O)OC21c2ccc(O)cc2Oc2cc(O)ccc21)C(=O)N[C@H](C(=O)N[C@@H](C)C(=O)N[C@@H](Cc1ccc(O)cc1)C(=O)N[C@@H](Cc1ccccc1)C(N)=O)[C@@H](C)O [D23A] ({FITC}-EDEDYEAFFKPVTAYF-NH2),1.5
4,CC(C)[C@H](NC(=O)[C@@H]1CCCN1C(=O)[C@H](CCCCN)NC(=O)[C@H](Cc1ccccc1)NC(=O)[C@H](Cc1ccccc1)NC(=O)[C@H](CC(=O)O)NC(=O)[C@H](CCC(=O)O)NC(=O)[C@H](Cc1ccc(O)cc1)NC(=O)[C@H](CC(=O)O)NC(=O)[C@H](CCC(=O)O)NC(=O)[C@H](CC(=O)O)NC(=O)[C@H](C)NC(=S)Nc1ccc2c(c1)C(=O)OC21c2ccc(O)cc2Oc2cc(O)ccc21)C(=O)N[C@H](C(=O)N[C@@H](C)C(=O)N[C@@H](Cc1ccc(O)cc1)C(=O)N[C@@H](Cc1ccccc1)C(N)=O)[C@@H](C)O [E17A] ({FITC}-ADEDYEDFFKPVTAYF-NH2),1.2
5,CC(C)[C@H](NC(=O)[C@@H]1CCCN1C(=O)[C@H](CCCCN)NC(=O)[C@H](Cc1ccccc1)NC(=O)[C@H](Cc1ccccc1)NC(=O)[C@H](CC(=O)O)NC(=O)[C@H](CCC(=O)O)NC(=O)[C@H](Cc1ccc(O)cc1)NC(=O)[C@H](CC(=O)O)NC(=O)[C@H](C)NC(=O)[C@H](CC(=O)O)NC(=O)[C@H](CCC(=O)O)NC(=S)Nc1ccc2c(c1)C(=O)OC21c2ccc(O)cc2Oc2cc(O)ccc21)C(=O)N[C@H](C(=O)N[C@@H](C)C(=O)N[C@@H](Cc1ccc(O)cc1)C(=O)N[C@@H](Cc1ccccc1)C(N)=O)[C@@H](C)O [E19A] ({FITC}-EDADYEDFFKPVTAYF-NH2),2.1
6,CC(C)[C@H](NC(=O)[C@@H]1CCCN1C(=O)[C@H](CCCCN)NC(=O)[C@H](Cc1ccccc1)NC(=O)[C@H](Cc1ccccc1)NC(=O)[C@H](CC(=O)O)NC(=O)[C@H](C)NC(=O)[C@H](Cc1ccc(O)cc1)NC(=O)[C@H](CC(=O)O)NC(=O)[C@H](CCC(=O)O)NC(=O)[C@H](CC(=O)O)NC(=O)[C@H](CCC(=O)O)NC(=S)Nc1ccc2c(c1)C(=O)OC21c2ccc(O)cc2Oc2cc(O)ccc21)C(=O)N[C@H](C(=O)N[C@@H](C)C(=O)N[C@@H](Cc1ccc(O)cc1)C(=O)N[C@@H](Cc1ccccc1)C(N)=O)[C@@H](C)O [E22A] ({FITC}-EDEDYADFFKPVTAYF-NH2),4.0
7,CC(C)[C@H](NC(=O)[C@@H]1CCCN1C(=O)[C@H](CCCCN)NC(=O)[C@H](Cc1ccccc1)NC(=O)[C@H](C)NC(=O)[C@H](CC(=O)O)NC(=O)[C@H](CCC(=O)O)NC(=O)[C@H](Cc1ccc(O)cc1)NC(=O)[C@H](CC(=O)O)NC(=O)[C@H](CCC(=O)O)NC(=O)[C@H](CC(=O)O)NC(=O)[C@H](CCC(=O)O)NC(=S)Nc1ccc2c(c1)C(=O)OC21c2ccc(O)cc2Oc2cc(O)ccc21)C(=O)N[C@H](C(=O)N[C@@H](C)C(=O)N[C@@H](Cc1ccc(O)cc1)C(=O)N[C@@H](Cc1ccccc1)C(N)=O)[C@@H](C)O [F24A] ({FITC}-EDEDYEDAFKPVTAYF-NH2),1.5
8,CC(C)[C@H](NC(=O)[C@@H]1CCCN1C(=O)[C@H](CCCCN)NC(=O)[C@H](C)NC(=O)[C@H](Cc1ccccc1)NC(=O)[C@H](CC(=O)O)NC(=O)[C@H](CCC(=O)O)NC(=O)[C@H](Cc1ccc(O)cc1)NC(=O)[C@H](CC(=O)O)NC(=O)[C@H](CCC(=O)O)NC(=O)[C@H](CC(=O)O)NC(=O)[C@H](CCC(=O)O)NC(=S)Nc1ccc2c(c1)C(=O)OC21c2ccc(O)cc2Oc2cc(O)ccc21)C(=O)N[C@H](C(=O)N[C@@H](C)C(=O)N[C@@H](Cc1ccc(O)cc1)C(=O)N[C@@H](Cc1ccccc1)C(N)=O)[C@@H](C)O [F25A] ({FITC}-EDEDYEDFAKPVTAYF-NH2),4.6
9,CC(C)[C@H](NC(=O)[C@@H]1CCCN1C(=O)[C@H](CCCCN)NC(=O)[C@H](Cc1ccccc1)NC(=O)[C@H](Cc1ccccc1)NC(=O)[C@H](CC(=O)O)NC(=O)[C@H](CCC(=O)O)NC(=O)[C@H](Cc1ccc(O)cc1)NC(=O)[C@H](CC(=O)O)NC(=O)[C@H](CCC(=O)O)NC(=O)[C@H](CC(=O)O)NC(=O)[C@H](CCC(=O)O)NC(=S)Nc1ccc2c(c1)C(=O)OC21c2ccc(O)cc2Oc2cc(O)ccc21)C(=O)N[C@H](C(=O)N[C@@H](C)C(=O)N[C@@H](Cc1ccc(O)cc1)C(=O)N[C@@H](C)C(N)=O)[C@@H](C)O [F32A] ({FITC}-EDEDYEDFFKPVTAYA-NH2),2.3
10,CC(C)[C@H](NC(=O)[C@@H]1CCCN1C(=O)[C@H](C)NC(=O)[C@H](Cc1ccccc1)NC(=O)[C@H](Cc1ccccc1)NC(=O)[C@H](CC(=O)O)NC(=O)[C@H](CCC(=O)O)NC(=O)[C@H](Cc1ccc(O)cc1)NC(=O)[C@H](CC(=O)O)NC(=O)[C@H](CCC(=O)O)NC(=O)[C@H](CC(=O)O)NC(=O)[C@H](CCC(=O)O)NC(=S)Nc1ccc2c(c1)C(=O)OC21c2ccc(O)cc2Oc2cc(O)ccc21)C(=O)N[C@H](C(=O)N[C@@H](C)C(=O)N[C@@H](Cc1ccc(O)cc1)C(=O)N[C@@H](Cc1ccccc1)C(N)=O)[C@@H](C)O [K26A] ({FITC}-EDEDYEDFFAPVTAYF-NH2),0.8
11,CC(C)[C@H](NC(=O)[C@@H]1CCCN1C(=O)[C@H](CCCCN)NC(=O)[C@H](Cc1ccccc1)NC(=O)[C@H](Cc1ccccc1)NC(=O)[C@H](CC(=O)O)NC(=O)[C@H](CCC(=O)O)NC(=O)[C@H](Cc1ccc(O)cc1)NC(=O)[C@H](CC(=O)O)NC(=O)[C@H](CCC(=O)O)NC(=O)[C@H](CC(=O)O)NC(=O)[C@H](CCC(=O)O)NC(=S)Nc1ccc2c(c1)C(=O)OC21c2ccc(O)cc2Oc2cc(O)ccc21)C(=O)N[C@@H](C)C(=O)N[C@@H](C)C(=O)N[C@@H](Cc1ccc(O)cc1)C(=O)N[C@@H](Cc1ccccc1)C(N)=O [T29A] ({FITC}-EDEDYEDFFKPVAAYF-NH2),2.0
